According to US9169252B2 (BRISTOL-MYERS SQUIBB COMPANY, priority 2014, dated 2015):
pEC50, pIC50: −log10 of the molar value.

Experiments:
IRAK4 = IRAK4 (Homo sapiens (Human), UniProt Q9NWZ3); experiment: IRAK4 Inhibition Assay; assay type: biochemical; details: IRAK4 Inhibition Assay; ATP 500 μM; read-out: IRAK4 IC50
Description: The assays were performed in U-bottom 384-well plates. […] The reaction was initiated by the combination of IRAK4 with substrates and test compounds. The reaction mixture was incubated at room temperature for 60 min. and terminated by adding 45 μL of 35 mM EDTA to each sample. The reaction mixture was analyzed on the Caliper LABCHIP® 3000 (Caliper, Hopkinton, Mass.) by electrophoretic separation of the fluorescent substrate and phosphorylated product.

[1] = system: TLR2 induced IL-6 in peripheral blood mononuclear cells (PBMCs); experiment: PBMC TLR2 Induced IL-6 Assay; assay type: cell-based, human; details: Homo sapiens, PBMC, PBMC TLR2 Induced IL-6 Assay, lipoteichoic acid stimulation, IL-6 by ELISA; for pEC50: read-out: Cell EC50; for pIC50: read-out: Cell IC50
In short: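 Lipoteichoic acid at 10 µg/ml served as TLR2 stimulus for 5 hours, following a 30-minute compound pretreatment at 37° C. Cells were Ficoll-isolated human PBMCs, 250000 cells/well, cultured in RPMI plus 10% heat-inactivated FCS.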

Chain of IRAK4 (Q9NWZ3 whole entry, species assumed): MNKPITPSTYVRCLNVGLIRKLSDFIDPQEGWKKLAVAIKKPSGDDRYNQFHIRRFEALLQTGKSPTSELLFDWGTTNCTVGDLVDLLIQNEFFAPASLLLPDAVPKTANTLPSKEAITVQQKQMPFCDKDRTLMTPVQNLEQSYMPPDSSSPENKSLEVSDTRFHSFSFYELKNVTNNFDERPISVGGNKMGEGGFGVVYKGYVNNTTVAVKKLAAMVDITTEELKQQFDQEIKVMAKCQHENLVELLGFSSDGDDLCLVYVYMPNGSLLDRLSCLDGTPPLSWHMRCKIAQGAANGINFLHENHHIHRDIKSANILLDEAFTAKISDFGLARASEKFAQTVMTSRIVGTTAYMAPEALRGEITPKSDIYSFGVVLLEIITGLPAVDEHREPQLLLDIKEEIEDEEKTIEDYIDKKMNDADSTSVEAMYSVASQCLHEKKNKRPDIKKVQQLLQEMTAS

pIC50 (IRAK4) | Structure (SMILES) | pEC50 [1] | pIC50 [1]
8.55 | CC(C)(O)[C@H](F)CNC(=O)c1cnc(-n2ccc3cc(C#N)cnc32)cc1NCC1(O)CCC1 [Example 28, (R)-6-(5-cyano-1H-pyrrolo[2,3-b]pyridin-1-yl)-N-(2-fluoro-3-hydroxy-3-methylbutyl)-4-(((1-hydroxycyclobutyl)methyl)amino)nicotinamide] | 7.10 | –
8.43 | CC(C)(O)[C@H](F)CNC(=O)c1cnc(-n2ccc3cc(C#N)cnc32)cc1NCC1COC1 [Example 29, (R)-6-(5-cyano-1H-pyrrolo[2,3-b]pyridin-1-yl)-N-(2-fluoro-3-hydroxy-3-methylbutyl)-4-((oxetan-3-ylmethyl)amino) nicotinamide] | 6.85 | –
8.66 | CC(C)(O)[C@H](F)CNC(=O)c1cnc(-n2ccc3cc(C#N)cnc32)cc1N[C@@H]1CCC[C@H]1O [Example 30, 6-(5-cyano-1H-pyrrolo[2,3-b]pyridin-1-yl)-N—((R)-2-fluoro-3-hydroxy-3-methylbutyl)-4-(((1R,2R)-2-hydroxycyclopentyl)amino)nicotinamide] | 7.00 | 6.74
8.47 | CC(C)(O)[C@H](F)CNC(=O)c1cnc(-n2ccc3cc(Cl)cnc32)cc1NC1CCC1 [Example 31, (R)-6-(5-chloro-1H-pyrrolo[2,3-b]pyridin-1-yl)-4-(cyclobutylamino)-N-(2-fluoro-3-hydroxy-3-methylbutyl)nicotinamide] | 6.44 | 5.96
8.72 | CC(C)(O)[C@H](F)CNC(=O)c1cnc(-n2ccc3cc(Cl)cnc32)cc1NC1CCOCC1 [Example 32, (R)-6-(5-chloro-1H-pyrrolo[2,3-b]pyridin-1-yl)-N-(2-fluoro-3-hydroxy-3-methylbutyl)-4-((tetrahydro-2H-pyran-4-yl)amino) nicotinamide] | 7.12 | 6.25
8.15 | CCNc1cc(-n2ccc3cc(Cl)cnc32)ncc1C(=O)NC[C@@H](F)C(C)(C)O [Example 33, (R)-6-(5-chloro-1H-pyrrolo[2,3-b]pyridin-1-yl)-4-(ethylamino)-N-(2-fluoro-3-hydroxy-3-methylbutyl)nicotinamide] | 6.18 | 6.39
8.28 | CC(C)(O)[C@H](F)CNC(=O)c1cnc(-n2ccc3cc(Cl)cnc32)cc1NC1CC1 [Example 34, (R)-6-(5-chloro-1H-pyrrolo[2,3-b]pyridin-1-yl)-4-(cyclopropylamino)-N-(2-fluoro-3-hydroxy-3-methylbutyl)nicotinamide] | 6.74 | 6.39
8.68 | CC(C)(O)CNc1cc(-n2ccc3cc(Cl)cnc32)ncc1C(=O)NC[C@@H](F)C(C)(C)O [Example 35, (R)-6-(5-chloro-1H-pyrrolo[2,3-b]pyridin-1-yl)-N-(2-fluoro-3-hydroxy-3-methylbutyl)-4-((2-hydroxy-2-methylpropyl)amino)nicotinamide] | 6.93 | 6.34
8.51 | CC(C)(O)CCNC(=O)c1cnc(-n2ccc3cc(Cl)cnc32)cc1NC1CCOCC1 [Example 36, 6-(5-chloro-1H-pyrrolo[2,3-b]pyridin-1-yl)-N-(3-hydroxy-3-methylbutyl)-4-((tetrahydro-2H-pyran-4-yl)amino)nicotinamide] | 6.88 | –
7.93 | CC(C)Nc1cc(-n2ccc3cc(Cl)ccc32)ncc1C(=O)NC[C@@H](F)C(C)(C)O [Example 37, (R)-6-(5-chloro-1H-indol-1-yl)-N-(2-fluoro-3-hydroxy-3-methylbutyl)-4-(isopropylamino)nicotinamide] | 5.91 | –
8.80 | CC(C)Nc1cc(-n2ccc3cc(F)cnc32)ncc1C(=O)NC[C@@H](F)C(C)(C)O [Example 38, (R)-6-(5-fluoro-1H-pyrrolo[2,3-b]pyridin-1-yl)-N-(2-fluoro-3-hydroxy-3-methylbutyl)-4-(isopropylamino)nicotinamide] | 7.08 | –
8.96 | CC(C)Nc1cc(-n2ccc3cncnc32)ncc1C(=O)NC[C@@H](F)C(C)(C)O [Example 39, (R)—N-(2-fluoro-3-hydroxy-3-methylbutyl)-4-(isopropylamino)-6-(7H-pyrrolo[2,3-d]pyrimidin-7-yl)nicotinamide] | 6.82 | 6.82
8.70 | CC(C)(O)[C@H](F)CNC(=O)c1cnc(-n2ccc3cncnc32)cc1NC1CCOCC1 [Example 40, (R)—N-(2-fluoro-3-hydroxy-3-methylbutyl)-6-(7H-pyrrolo[2,3-d]pyrimidin-7-yl)-4-((tetrahydro-2H-pyran-4-yl)amino)nicotinamide] | 6.76 | 6.76
8.72 | CC(C)(O)[C@H](F)CNC(=O)c1cnc(-n2ccc3cncnc32)cc1NC1CC1 [Example 41, (R)-4-(cyclopropylamino)-N-(2-fluoro-3-hydroxy-3-methylbutyl)-6-(7H-pyrrolo[2,3-d]pyrimidin-7-yl)nicotinamide] | 6.66 | 6.66
7.87 | CC(C)(O)CNc1cc(-n2ccc3cncnc32)ncc1C(=O)NC[C@@H](F)C(C)(C)O [Example 42, (R)—N-(2-fluoro-3-hydroxy-3-methylbutyl)-4-((2-hydroxy-2-methylpropyl)amino)-6-(7H-pyrrolo[2,3-d]pyrimidin-7-yl)nicotinamide] | 6.21 | 6.03
8.22 | CC(C)(O)CCNC(=O)c1cnc(-n2ccc3cncnc32)cc1NC1CCOCC1 [Example 43, N-(3-hydroxy-3-methylbutyl)-6-(7H-pyrrolo[2,3-d]pyrimidin-7-yl)-4-((tetrahydro-2H-pyran-4-yl)amino)nicotinamide] | 6.50 | –
8.38 | CC(C)Nc1cc(-n2ccc3cncnc32)ncc1C(=O)NCCC(C)(C)O [Example 44, N-(3-hydroxy-3-methylbutyl)-4-(isopropylamino)-6-(7H-pyrrolo[2,3-d]pyrimidin-7-yl)nicotinamide] | 7.01 | –
7.63 | CC(=O)Nc1cnc2c(ccn2-c2cc(NC(C)C)c(C(=O)NC[C@@H](F)C(C)(C)O)cn2)c1 [Example 45, (R)-6-(5-acetamido-1H-pyrrolo[2,3-b]pyridin-1-yl)-N-(2-fluoro-3-hydroxy-3-methylbutyl)-4-(isopropylamino)nicotinamide] | 6.83 | –
8.66 | CC(C)(O)[C@H](F)CNC(=O)c1cnc(-n2ccc3cc(C#N)cnc32)cc1Nc1cccc(O)c1 [Example 46, (R)-6-(5-cyano-1H-pyrrolo[2,3-b]pyridin-1-yl)-N-(2-fluoro-3-hydroxy-3-methylbutyl)-4-((3-hydroxyphenyl)amino)nicotinamide] | 7.64 | –
8.25 | CC(C)Nc1cc(-n2ccc3cc(C#N)cnc32)ncc1C(=O)NCCCOC(C)C [Example 47, 6-(5-cyano-1H-pyrrolo[2,3-b]pyridin-1-yl)-N-(3-isopropoxypropyl)-4-(isopropylamino) nicotinamide] | 6.76 | –
8.72 | CC(C)(O)[C@H](F)CNC(=O)c1cnc(-n2ccc3cc(C#N)cnc32)cc1Nc1cccc(S(N)(=O)=O)c1 [Example 50, (R)-6-(5-cyano-1H-pyrrolo[2,3-b]pyridin-1-yl)-N-(2-fluoro-3-hydroxy-3-methylbutyl)-4-((3-sulfamoylphenyl)amino)nicotinamide] | 7.24 | –
8.62 | CC(C)(O)[C@H](F)CNC(=O)c1cnc(-n2ccc3cc(C#N)cnc32)cc1NC[C@@H](F)C(C)(C)O [Example 52, 6-(5-cyano-1H-pyrrolo[2,3-b]pyridin-1-yl)-N—((R)-2-fluoro-3-hydroxy-3-methylbutyl)-4-(((R)-2-fluoro-3-hydroxy-3-methylbutyl)amino)nicotinamide] | 7.18 | –
8.72 | CC(C)(O)[C@H](F)CNC(=O)c1cnc(-n2ccc3cc(C#N)cnc32)cc1NC1CC(F)(F)C1 [Example 53, (R)-6-(5-cyano-1H-pyrrolo[2,3-b]pyridin-1-yl)-4-((3,3-difluorocyclobutyl)amino)-N-(2-fluoro-3-hydroxy-3-methylbutyl)nicotinamide] | 6.57 | –
8.74 | CC(=O)Nc1cccc(Nc2cc(-n3ccc4cc(C#N)cnc43)ncc2C(=O)NC[C@@H](F)C(C)(C)O)c1 [Example 54, (R)-4-((3-acetamidophenyl)amino)-6-(5-cyano-1H-pyrrolo[2,3-b]pyridin-1-yl)-N-(2-fluoro-3-hydroxy-3-methylbutyl) nicotinamide] | 6.60 | –
8.44 | CNC(=O)c1cccc(Nc2cc(-n3ccc4cc(C#N)cnc43)ncc2C(=O)NC[C@@H](F)C(C)(C)O)c1 [Example 55, (R)-6-(5-cyano-1H-pyrrolo[2,3-b]pyridin-1-yl)-N-(2-fluoro-3-hydroxy-3-methylbutyl)-4-((3-(methylcarbamoyl)phenyl)amino)nicotinamide] | 6.29 | –
8.60 | CC(C)(O)[C@H](F)CNC(=O)c1cnc(-n2ccc3cc(C#N)cnc32)cc1Nc1cccc(C(N)=O)c1 [Example 56, (R)-4-((3-carbamoylphenyl)amino)-6-(5-cyano-1H-pyrrolo[2,3-b]pyridin-1-yl)-N-(2-fluoro-3-hydroxy-3-methylbutyl)nicotinamide] | 6.99 | –
